Where two headings read alike, the source gives them in different places. Where a SMILES comes first, the peptide text is derived from it. [ ]: non-standard residue; d: D form. NMeR = CN[C@@H](CCCNC(=N)N)C(=O)O; Ac6c = NC1(C(=O)O)CCCCC1; Chex = not defined here
Legend:
K. pneumoniae ATCC 13883 [1] = assay type: cell-based, Klebsiella pneumoniae; conditions: for Antibacterial activity, MIC: ATCC 13883; for Antibacterial activity against K. pneumoniae (in words): K. pneumoniae ATCC 13883 in MHB, compared with analog 1, Chex1-Arg20
Description: An antibacterial assay was undertaken to determine the minimal inhibitory concentration (MIC) as described previously (Li et al., [2015b]). The Gram-negative nosocomial bacterium, K. pneumoniae ATCC13883, was selected for testing the antibacterial activities of the Chex1-Arg20 analogs using 2.5 × 10^5 cells/ml in Mueller Hinton broth (MHB) at 37°C immediately prior to the determination of MIC.
Each Chex1-Arg20 analog was assayed against the nosocomial Gram-negative bacterium K. pneumoniae ATCC 13883. The results are shown in Table 2 in comparison with analog 1, Chex1-Arg20. […] This highlighted the importance of arginine-7 and its native L-configuration for characteristic antimicrobial activity.

[2] = cited from earlier work
K. pneumoniae ATCC 13883 [3] = conditions: previously reported, ref Li et al., 2015b; cited from earlier work
Text: Table 2 Antibacterial activity, MIC (μM), of Chex1-Arg20 analogs against Gram-negative pathogen K. pneumoniae ATCC 13883. | column: 1^^*

Molecule | Antibacterial activity, MIC (K. pneumoniae ATCC 13883 [1]) | Antibacterial activity against K. pneumoniae (in words) (K. pneumoniae ATCC 13883 [1]) | Degradation sites in vivo [2] | Antibacterial activity, MIC (K. pneumoniae ATCC 13883 [3])
CC(C)C[C@H](NC(=O)[C@H](Cc1ccc(O)cc1)NC(=O)[C@@H]1CCCN1C(=O)[C@@H](CCCNC(=N)N)NC(=O)[C@@H]1CCCN1C(=O)[C@H](CCCCN)NC(=O)[C@H](CC(=O)O)NC(=O)[C@@H]1CCCN1C(=O)[C@H](CCCNC(=N)N)NC(=O)C1(N)CCCCC1)C(=O)N1CCC[C@H]1C(=O)N[C@@H](CCCNC(=N)N)C(=O)N1CCC[C@H]1C(=O)N[C@@H](CCCNC(=N)N)C(=O)N1CCC[C@H]1C(=O)N1CCC[C@H]1C(=O)N[C@@H](CCCNC(=N)N)C(=O)N1CCC[C@H]1C(=O)N[C@H](C(=O)N[C@@H](CCCNC(=N)N)C(N)=O)C(C)C [analog 2, DR7] (H-[Ac6c]RPDKP[dR]PYLPRPRPPRPVR-NH2; N-terminus assumed) | >100 µM | substantial loss of activity | – | –
CC(C)C[C@H](NC(=O)[C@H](Cc1ccc(O)cc1)NC(=O)[C@@H]1CCCN1C(=O)[C@H](N)CCCNC(=N)N)C(=O)N1CCC[C@H]1C(=O)N[C@@H](CCCNC(=N)N)C(=O)N1CCC[C@H]1C(=O)N[C@@H](CCCNC(=N)N)C(=O)N1CCC[C@H]1C(=O)N1CCC[C@H]1C(=O)N[C@@H](CCCNC(=N)N)C(=O)N1CCC[C@H]1C(=O)N[C@H](C(N)=O)C(C)C [analog 4, DR7(7–19)] (H-[dR]PYLPRPRPPRPV-NH2; N-terminus assumed) | >100 µM | no antibacterial activity | – | –
CC(C)C[C@H](NC(=O)[C@H](Cc1ccc(O)cc1)NC(=O)[C@@H]1CCCN1C(=O)[C@@H](CCCNC(=N)N)NC(=O)[C@@H]1CCCN1C(=O)[C@H](CCCCN)NC(=O)[C@H](CC(=O)O)NC(=O)[C@@H]1CCCN1C(=O)[C@H](CCCNC(=N)N)NC(=O)C1(N)CCCCC1)C(=O)N1CCC[C@H]1C(=O)N[C@@H](CCCNC(=N)N)C(=O)N1CCC[C@H]1C(=O)N[C@@H](CCCNC(=N)N)C(=O)N1CCC[C@H]1C(=O)N1CCC[C@H]1C(=O)N[C@@H](CCCNC(=N)N)C(=O)N1CCC[C@H]1C(=O)N[C@H](C(N)=O)C(C)C [analog 5, Chex1-Val19] (H-[Ac6c]RPDKP[dR]PYLPRPRPPRPV-NH2; N-terminus assumed) | 36.1 ± 0.6 µM | partially restored activity | – | –
CC(C)C[C@H](NC(=O)[C@H](Cc1ccc(O)cc1)NC(=O)[C@@H]1CCCN1C(=O)[C@H](CCCNC(=N)N)NC(=O)[C@@H]1CCCN1C(=O)[C@H](CCCCN)NC(=O)[C@H](CC(=O)O)NC(=O)[C@@H]1CCCN1C(=O)[C@H](CCCNC(=N)N)NC(=O)C1(N)CCCCC1)C(=O)N1CCC[C@H]1C(=O)N[C@@H](CCCNC(=N)N)C(=O)N1CCC[C@H]1C(=O)N[C@@H](CCCNC(=N)N)C(=O)N1CCC[C@H]1C(=O)N1CCC[C@H]1C(=O)N[C@@H](CCCNC(=N)N)C(=O)N1CCC[C@H]1C(=O)N[C@H](C(=O)N[C@H](CCCNC(=N)N)C(N)=O)C(C)C [analog 6, DR20] (H-[Ac6c]RPDKPRPYLPRPRPPRPV[dR]-NH2; N-terminus assumed) | 11.8 ± 0.1 µM | – | – | –
CC(C)C[C@H](NC(=O)[C@H](Cc1ccc(O)cc1)NC(=O)[C@@H]1CCCN1C(=O)[C@H](CCCNC(=N)N)NC(=O)[C@@H]1CCCN1C(=O)[C@H](CCCCN)NC(=O)[C@H](CC(=O)O)NC(=O)[C@@H]1CCCN1C(=O)[C@H](CCCNC(=N)N)NC(=O)C1(N)CCCCC1)C(=O)N1CCC[C@H]1C(=O)N[C@@H](CCCNC(=N)N)C(=O)N1CCC[C@H]1C(=O)N[C@@H](CCCNC(=N)N)C(=O)N1CCC[C@H]1C(=O)N1CCC[C@H]1C(=O)N[C@@H](CCCNC(=N)N)C(=O)N1CCC[C@H]1C(=O)N[C@H](C(=O)N(C)[C@@H](CCCNC(=N)N)C(N)=O)C(C)C [analog 7, mR20] (H-[Ac6c]RPDKPRPYLPRPRPPRPV[NMeR]-NH2; N-terminus assumed) | 14.5 ± 0.1 µM | – | – | –
CC(C)C[C@H](NC(=O)[C@@H]1CCCN1C(=O)[C@H](CCCNC(=N)N)NC(=O)[C@@H]1CCCN1C(=O)[C@H](CCCNC(=N)N)NC(=O)[C@@H]1CCCN1C(=O)[C@@H]1CCCN1C(=O)[C@H](CCCNC(=N)N)NC(=O)[C@@H]1CCCN1C(=O)[C@@H](NC(=O)[C@H](CCCNC(=N)N)NC(=O)C1(N)CCCCC1)C(C)C)C(=O)N[C@@H](Cc1ccc(O)cc1)C(=O)N1CCC[C@H]1C(=O)N[C@@H](CCCNC(=N)N)C(=O)N1CCC[C@H]1C(=O)N[C@@H](CCCCN)C(=O)N[C@@H](CC(=O)O)C(=O)N1CCC[C@H]1C(=O)N[C@@H](CCCNC(=N)N)C(N)=O [analog 8, reverse] (H-[Ac6c]RVPRPPRPRPLYPRPKDPR-NH2; N-terminus assumed) | >100 µM | no activity | – | –
A3-APO | – | – | degradation at positions Pro6-Arg7 and Val19-Arg20 | –
Chex1-Arg20 (Chex-RPDKPRPYLPRPRPPRPVR-NH2; reading uncertain) [analog 1, de novo designed proline-rich antimicrobial peptide, Chex-…-NH2] | – | – | – | 0.8 ± 0.1 µM
